Series [1] has as its system DsRed1 reporter gene activated by early viral gene expression. The series can be described thus: DsRed1 reporter gene expression in HIV-exposed LC5-RIC cultures (first step of two-step assay). The series is classed as cell-based, HIV-1. Also on record: unit not given here. The note with it: 50 nM, 48 h. An excerpt:
The reporter gene in LC5-RIC cells contains the HIV promoter and other regulatory elements of HIV expression and is activated by early viral gene expression during HIV infection. Use of LC5-RIC cells in a previously described two-step assay format allows comparison of the effect of compound treatment on expression of the DsRed1 reporter gene and infectious virus production in the same cultures. As reference compound, we used an experimental inhibitor of HIV transcription called Flavopiridol. Flavopiridol blocks pTEFb, an essential co-factor for Tat-dependent activation[18],[19]. […]
Figure 2 Comparison of effects of compound #7 treatment on reporter gene expression and production of infectious virus in LC5-RIC cultures. […] Effects of compound treatment on reporter gene expression and production of infectious virus were determined in LC5-RIC cultures exposed to virus inoculum in the presence or absence of compounds for 48 h. Fluorescent signals of these primary cultures were measured to determine effects on reporter gene expression. Effects on infectious virus production were determined by transferring aliquots of the supernatants of primary cultures to uninfected LC5-RIC cells, and fluorescent signals determined in secondary plates 72 h after transfer. […]

For series [2], the system named is HIV-1LAI. The series can be described thus: Inhibition of HIV infection of human PBMCs (infectious virus production, read out on LC5-RIC cells). Type of series: cell-based. Conditions: mean ± SD. Here is the method: (§1) To evaluate anti-HIV efficacies of test compounds in primary human target cells, stimulated PBMCs were seeded in 96-well plates at a density of 500,000 cells per well, different #7concentrations of the compound (serial dilutions) and virus inoculum (MOI of 0.5) added to the PBMCs and cultures incubated for 48 h. Infectious virus production was quantified by transferring 35 µl of supernatant from the PBMC cultures to LC5-RIC cells, seeded in black 96-well plates one day earlier. LC5-RIC cultures were then incubated for 72 h and analysed for DsRed1 reporter expression and anti-HIV activity calculated as described for the EASY-HIT assay.

The target in series [3] is T1, HIV integrase (Human immunodeficiency virus type 1 group M subtype B, UniProt P04585).
T1 construct: purchased XpressBio
The series is described as follows: HIV Integrase Activity Assay (HIV-1 Integrase Assay Kit). The series is classed as biochemical. The note with it: 10 µM. As for the experimental part: HIV Integrase Activity Assay. To evaluate the inhibitory effect of test compounds to counteract HIV integrase activity, the HIV-1 Integrase Assay Kit (XpressBio) was conducted according to manufacturer’s recommendations. Dolutegravir was used as reference inhibitor.

Series [4] relates to HIV-1V13-03413B. The series can be described thus: Inhibition of multi-drug-resistant clinical isolate HIV-1 V13-03413B in PBMCs. Type of series: cell-based, HIV-type 1. The note with it: Human immunodeficiency virus 1, PBMC.
Description: Clinical isolates represented the following HIV genotypes: HIV-1MMVP899-87: HIV-type 1, Major group; HIV-1OMVP5180-91: HIV-type 1, Outlier group; HIV-2MVP10668-93: HIV-type 2; HIV-1V13-03413B: HIV-type 1, Major group/B-clade, isolate with multiple drug-resistance mutations. Depicted are the means of three independent experiments with biological triplicates (n = 3; m = 3) and standard deviations (SD).
Isolation of primary clinical HIV-isolates HIV-1MMVP899-87, HIV-1OMVP5180-91, HIV-1V13-03413B and HIV-2MVP10668-93 is described in[43]. The HIV-1 M group/B-clade isolate (HIV-1V13-03413B) was isolated from a patient with virological treatment failure. Clinical isolates were produced from HIV infected H9 cells as described.
as §1

The target in series [5] is T2, recombinant HIV-1 reverse transcriptase (Human immunodeficiency virus type 1 group M subtype B, UniProt P04585).
T2 construct: using 4 ng recombinant HIV-1 reverse transcriptase; purchased Roche
The series can be described thus: HIV Reverse Transcriptase Activity Assay (colorimetric kit). Type of series: biochemical. The note with it: 10 µM. As for the experimental part:
HIV Reverse Transcriptase Activity Assay. To determine the inhibitory effect of test compounds against HIV reverse transcriptase activity, the colorimetric Reverse Transcriptase Assay Kit (Roche) was performed according to manufacturer’s protocol using 4 ng recombinant HIV-1 reverse transcriptase. Efavirenz was used as reference compound.

The test system of series [6] is HIV-1LAI. The series can be described thus: Photostability of anti-HIV activity (24 h illumination vs dark, EASY-HIT read-out). Type of series: cell-based. Conditions: 24 h illumination vs same compound kept in the dark; compounds at IC90; LC5-RIC. Here is the method:
Figure 1 Profiling of photostability of anti-HIV activity of Aureothin and synthetic Aureothin-derivatives. Anti-HIV activity of compound samples illuminated for 24 h were normalised to anti-HIV activity of samples of the same compound kept in the dark. Anti-HIV activity was measured by quantifying the amounts of infectious virus produced by HIV-1LAI exposed LC5-RIC cells treated with compounds at IC90 concentrations (Supplementary Table S1). […] Shown are means of at least three independent experiments with biological triplicates (n ≥ 3; m = 3) and the standard error of the mean (SEM) indicated.
LC5-RIC cells were plated as described for the EASY-HIT assay. […] Plates were incubated either in the dark or under constant illumination with a commercially available desk lamp (2X Philips Master PL-S-9W/840/2 P, 30 cm between light source and compounds) for 24 h at room temperature. For analysis of anti-HIV activity, compound samples were transferred to LC5-RIC cells and their anti-HIV activity determined by measuring compound effects on infectious virus production with the EASY-HIT assay. Relative photostability was calculated by normalizing the anti-HIV activity of the illuminated compounds to the antiviral activity of compounds kept in the dark.

Structures are written as SMILES. Like-named read-outs stand apart in the source and are kept apart here.

Consider `CN1CC[C@H](c2c(O)cc(O)c3c(=O)cc(-c4ccccc4Cl)oc23)[C@H](O)C1` [Flavopiridol], for which the “Reporter gene expression, median (fluorescent signal normalized to untreated virus-exposed cultures)” value in series [1] was 9.33. Further, in series [2] (Human immunodeficiency virus 1, Table S2, PBMC, read-out: Anti-HIV in PBMC, IC50), the IC50 worked out at 0.0356 ± 0.00346 µM.
With `COc1oc(C2C/C(=C/C(C)=C/c3ccc(C(F)(F)F)cc3)CO2)c(C)c(=O)c1C` (centres unmarked) [compound #7], the “Reporter gene expression, median (fluorescent signal normalized to untreated virus-exposed cultures)” value in series [1] was 55.3. In addition, in series [3], the “inhibitory effect on Integrase activity” value was “no inhibitory effects”. The IC50 in series [4] (read-out: IC50 value, HIV-1 V13-03413B) worked out at 0.0042 µM; in series [2] (Human immunodeficiency virus 1, PBMC, human PBMCs exposed to HIV-1LAI, read-out: IC50, half maximal HIV-inhibitory concentration), 0.0103 ± 0.00065 µM. Further, the IC90 in series [4] (read-out: IC90 value, HIV-1 V13-03413B) was 0.0105 µM; in series [2] (Human immunodeficiency virus 1, PBMC, read-out: IC90, 90% HIV-inhibitory concentration, human PBMCs exposed to HIV-1LAI), under 0.045 µM; in series [2] (read-out: IC90, 90% HIV-inhibitory concentration, human PBMCs exposed to HIV-1LAI), 0.041 ± 0.00123 µM. For the same compound, the “inhibitory effect on Reverse transcriptase activity” value in series [5] is “no inhibitory effects”. In addition, the “anti-HIV activity retained after exposure to light” value in series [6] is on record as “over 95%”.

The values are drawn from article PMC6987146, “Potent inhibition of HIV replication in primary human cells by novel synthetic polyketides inspired by Aureothin” (Scientific Reports, 2020).
